The nature of data set [1]: Metabolic stability in human liver microsomes. In kind it is in vitro ADME. The settings on record: pH 7.4, 0.5 mg/mL microsomes, NADPH, 45 minutes, 37° C., read-out: Half-life in liver microsomes (t1/2). How it is done: (§1) Microsomal stability. Microsomal stability assays were conducted on a Beckmann Biomek FXp laboratory automation system. The liver microsomal incubation mixture consisted of liver microsomes (0.5 mg microsomal protein/mL), the Compound (1 μM), MgCl2 (3 mM), and EDTA (1 mM) in potassium phosphate buffer (100 mM, pH 7.4). Midazolam and Ketanserin were used as the assay control substrates. The reaction was initiated with the addition of an NADPH regeneration solution (1.3 mM NADPH) and maintained at 37° C. with shaking. At five time points ranging from 0 to 45 min, aliquots (50 μL) were removed and quenched with acetonitrile (100 μL) containing an internal standard (imipramine). After vortex and centrifugation, samples were analyzed by LC-MS/MS. Calculation of the in vitro half-lives and clearance followed literature guidelines.

The target of data set [2] is T1, BRD4 (49-170) bromodomain (Homo sapiens, UniProt O60885).
T1 construct: The GST tagged bromodomains of CBP (1081-1197) and BRD4 (49-170) were obtained from BPS Bioscience; purchased BPS Bioscience
The data set can be described thus: BRD4 AlphaScreen assay. Conditions: binding to biotin-H4 (1-21) Ac-K5/8/12/16. The method, then:
(§2) Specific binding of the CBP or BRD4 bromodomain to the acetylated peptide derived from the H4 histone substrate (tetra acetylated H4 (1-21) Ac—K5/8/12/16) was measured in absence or presence of inhibitors. The GST tagged bromodomains of CBP (1081-1197) and BRD4 (49-170) were obtained from BPS Bioscience and binding to the biotinylated H4 (1-21) Ac—K5/8/12/16 (AnaSpec. 64989) was assessed via AlphaScreen technology (Perkin Elmer).
(§3) BRD4 AlphaScreen assay: The binding of 2.5 nM of BRD4 (49-170) to 10 nM biotin-H4 (1-21) Ac—K5/8/12/16 (AnaSpec. 64989) was assessed following the same procedure described for the CBP assay. The standard dose response curves were fitted by Genedata Screener software using the variable-slope model: Signal=Signalnegative control+(SignalDMSO control−Signalnegative control)/(1+(IC50/Dose)∧Hill slope).
(§4) Only Signal and Dose in the equation were treated as known values.

The nature of data set [3]: Metabolic stability in mouse liver microsomes. In kind it is in vitro ADME, CD-1 mouse. The settings on record: CD-1, liver microsomes, pH 7.4, 0.5 mg/mL microsomes, NADPH, 45 minutes, 37° C., read-out: Half-life in liver microsomes (t1/2). How it is done: as §1
On the technique in general: Microsomes from liver hold many membrane-bound enzymes, among them those of drug oxidation.

The nature of data set [4]: In vivo pharmacokinetics after a single dose, mouse. On the set-up: species or system Female CD-1 Mice. How it is done: (§5) IV (intravenous) doses were formulated in 20% DMSO+60% PEG400+20% water. PO (per os) doses were formulated in 0.5% methylcellulose in water.
Mouse: Female mice (CD1 strain, purchased from Shanghai JH Laboratory Animal Co. LTD) weighing 20-30 g were used for studies. Food and water were available to all animals ad libitum. The test article was dosed via tail vein (IV doses) or oral gavage (PO doses), respectively. Blood samples were collected from all animals at predose and at 0.083, 0.25, 0.5, 1, 2, 4, 8, and 24 h postdose into tubes containing the anticoagulant K2EDTA (3 animals per time point with 3 time points collected per animal). Plasma was separated from the blood by centrifugation at 4° C. and stored at −70° C. until analysis. Test article concentrations in plasma were quantified using a liquid chromatography with tandem mass spectrometry (LC-MS/MS) method.

Data set [5] deals with DOHH2 cells. The experiment in a line: DOHH2 Proliferation Assay. The class given is cell-based. Conditions: Homo sapiens, DOHH-2, 168 h; CellTiter-Glo viability on day 7. How it is done: DOHH2 Proliferation Assay: On day 1, 1000 DOHH2 cells were seeded to a 384-well TC plate (PerkinElmer #6007680) in 40 μL RPMI 1640 media, followed by the addition of CBP inhibitors except for column 13 where 3.3 μM staurosporine was added as negative control. DMSO was 0.1% in all the wells. The cells were lysed in and counted viability by 40 μL CellTiter-Glo (Promega #G9243) on day 7. The luminescent signal was quantified by Envision Multilabel plate reader and the standard dose response curves were fitted by Genedata Screener software using the variable-slope model: Signal=Signalnegative control+(SignalDMSO control−Signalnegative control)/(1+(IC50/Dose)∧Hill slope).
as §4

Data set [6] can be described thus: In vivo pharmacokinetics after a single dose, dog. The settings on record: male, plasma, Beagle dog. The method, then:
as §5
Dog: Male Beagle dogs (purchased from Beijing Marshall Biotechnology Co., Ltd) weighing 7-10 kg were used for studies. Animals were fasted overnight and fed 4 h postdose. Test article was administered to dogs via the cephalic vein (IV doses) or oral gavage (PO doses). Blood samples were collected via the saphenous vein or cephalic vein from all animals at predose and 0.083, 0.25, 0.5, 1, 2, 4, 8, and 24 h postdose into tubes containing the anticoagulant K2EDTA. Plasma was separated from the blood by centrifugation at 4° C. and stored at −70° C. until analysis. Test article concentrations in plasma were quantified using a liquid chromatography with tandem mass spectrometry (LC-MS/MS) method.

Data set [7] concerns the target T2, GST-CBP (1081-1197) bromodomain (Homo sapiens, UniProt Q92793).
T2 construct: The GST tagged bromodomains of CBP (1081-1197) and BRD4 (49-170) were obtained from BPS Bioscience; purchased BPS Bioscience
The data set can be described thus: CBP AlphaScreen assay. The settings on record: binding to biotin-H4 (1-21) Ac-K5/8/12/16. How it is done: as §2
CBP AlphaScreen assay: 5 nM GST-CBP (1081-1197) and 20 nM biotin-H4 (1-21) Ac—K5/8/12/16 (AnaSpec. 64989) were incubated with varying concentrations of CBP inhibitors in 15 μL of buffer containing 50 mM HEPES 7.5, […], 1 mM TCEP, and 0.003% Tween-20. After 30 minutes incubation at room temperature, 15 μL of detection buffer (BPS Bio. 33006) containing 7 μg/mL of Glutathione AlphaLisa acceptor beads (Perkin Elmer AL109) and 14 μg/mL of Streptavidin donor beads (Perkin Elmer 676002) was then added to the previous mixture. The reaction was incubated for an additional 2 hours at room temperature, and the AlphaScreen signal was quantified using the Envision Multilabel plate reader. As negative control, GST-CBP (1081-1197) was incubated with the non-acetylated biotin-H4 (1-21) peptide (AnaSpec. 62555) and in presence of 0.25% of final DMSO concentration.
as §3, §4
(In general: In Alpha technology, singlet oxygen from a donor bead excites a nearby acceptor bead.)

Data set [8] in a line: Metabolic stability in monkey liver microsomes. In kind it is in vitro ADME. The settings on record: pH 7.4, read-out: Liver microsomal clearance (t1/2). How it is done:
as §1

Data set [9] is described as follows: Metabolic stability in rat liver microsomes. In kind it is in vitro ADME. The settings on record: Sprague Dawley, pH 7.4, 0.5 mg/mL microsomes, NADPH, 45 minutes, 37° C., read-out: Half-life in liver microsomes (t1/2). How it is done:
as §1

Where [10] appears, read: plasma, Female CD-1 mice, single dose 0.2 or 0.3 mg/kg IV.

The record followed here is patent US12559497B2, “Imidazopiperazine inhibitors of transcription activating proteins” (Board of Regents, The University of Texas System, priority 2020, dated 2026).

pIC50: −log10 of the molar value.

T2 sequence (Q92793 1081-1197): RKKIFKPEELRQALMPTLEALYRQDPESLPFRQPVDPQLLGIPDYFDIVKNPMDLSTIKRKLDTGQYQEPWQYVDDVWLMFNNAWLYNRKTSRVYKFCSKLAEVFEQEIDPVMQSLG

The term pIC50 denotes the negative decadic logarithm of the IC50, by convention in mol/L. By clearance is commonly meant the rate of elimination divided by the concentration. Usually AUC(0-t) stands for the area under the concentration-time curve up to a stated or last time point. As usually defined, the Cmax is the peak of the concentration-time curve. `CC(=O)N1CCn2c(C3CCOCC3)nc(-c3cccc4cc(-c5cnc(C)s5)ncc34)c2C1` [Compound 1, 1-(1-(3-(2-methylthiazol-5-yl)isoquinolin-8-yl)-3-(tetrahydro-2H-pyran-4-yl)-5,6-dihydroimidazo[1,5-α]pyrazin-7 (8H)-yl)ethan-1-one]: the half-life at 1 μM in [1] was 5.17 h; in data set [3], 6.55 h; in [8] it was 1.62 h; in data set [9], 20.4 h. The pIC50 in [2] is 4.88; in data set [5], 6.58; in data set [7], 8.15. In data set [4] (in words), the “mouse in vivo clearances compared to the structural analogs previously disclosed” value is “dramatic decrease”. Moreover, the “mouse in vivo half-lives compared to the structural analogs previously disclosed” value in data set [4] (in words) is “increase”. Also, the figures for the clearance in data set [4] (setting [10]) and in data set [6] (1 mg/kg IV single dose) were 6.2 mL/min/kg and 4.3 mL/min/kg, respectively. The half-life in data set [4] (setting [10]) was 2.99 h; in [6] (1 mg/kg IV single dose), 9.74 h. Besides, the Vd in data set [4] (plasma, Female CD-1 mice, single dose 0.2 or 0.3 mg/kg IV, read-out: Vss) amounted to 1.45 L/kg; in [6] (1 mg/kg IV single dose, read-out: Vss) it was 3.38 L/kg. The compound also registered an AUC(0-t) in data set [6] (3 mg/kg PO single dose) of 26.2 µM·h. In data set [6] (3 mg/kg PO single dose), this compound gave a Cmax of 2560 nM. In addition, in data set [6] (3 mg/kg PO single dose), the bioavailability was 119%.
